Several values for one entry are separate records, joined by “and”; a condition that tells them apart may be missing. Equal values may be shown once. Entries after “also recorded” stand apart in the source; their conditions may differ. Read-outs that look alike come from different tables or passages of the source.
Assays:
[1] = biological target: T1, mKOR (Mus musculus, UniProt P33534); experiment: [35S]GTPγS functional assay, mKOR; assay type: biochemical
T1 construct: expressed in transfected cells

[2] = biological target: T2, hDOR (Homo sapiens, UniProt P41143); experiment: Tango β-arrestin recruitment assay, hDOR; assay type: cell-based; design: expressed in transfected cells; host or cells: HTLA cells expressing TEV fused-beta-Arrestin2; conditions: for Emax: read-out: Arrestin recruitment Emax % ± SEM
[3] = biological target: T3, mDOR (Mus musculus, UniProt P32300); experiment: Radioligand competition binding ([125I]IBNtxA), CHO membranes, mDOR
T3 construct: expressed in transfected cells

[4] = biological target: T4, mouse delta opioid receptor (mDOR) (Mus musculus, UniProt P32300); experiment: BRET assay, G-protein activation, mDOR; assay type: cell-based; conditions: for Emax: read-out: G-Protein activation Emax % ± SEM
T4 construct: expressed in transfected cells; host or cells: HEK-293T, transient (PEI), with BRET sensor cDNAs

[5] = biological target: T5, Y312W-hKOR (Homo sapiens, UniProt P41145, Y312W); experiment: cAMP inhibition assay, Y312W-hKOR mutant; assay type: cell-based; design: expressed in transfected cells; host or cells: HEK 293T (inferred from the general cAMP method); conditions: for Emax: read-out: Gi Emax Y312W-hKOR
[6] = test system: C57BL/6J mice; experiment: 55° C. warm-water tail-withdrawal assay; assay type: in vivo, mouse; conditions: icv, 55° C. tail withdrawal
Method: (§1) Tail-withdrawal assay The 55° C. warm-water tail-withdrawal assay was conducted in mice as a measure of acute thermal antinociception as described previously (Reilley et al., 2010). Briefly, each mouse was tested for baseline tail-withdrawal latency prior to drug administration. Following drug administration, the latency for each mouse to withdraw the tail was measured every 10 minutes until latency returned to the baseline value. A maximum response time of 15 seconds was utilized to prevent tissue damage. […] Data are reported as percent antinociception, calculated by the equation: % antinociception=100×[(test latency−baseline latency)/(15−baseline latency)]. This was utilized to account for innate variability between mice. Compounds were administered either, […] (IP) or intracerebroventricular (icv) and the analgesic action of compounds was assessed at the peak effect as described previously (Haley and McCormick, 1957). In brief, mice were anesthetized using isoflurane. A small incision was made, and the drug (2 μl/mouse) was injected (using a 10 μL Hamilton syringe fitted to a 27-gauge needle) into the right lateral ventricle at the following coordinates: 2 mm caudal to bregma, 2 mm lateral to sagittal suture, and 2 mm in depth. Mice were tested for analgesia at the peak effect post injection.

[7] = biological target: T3, mDOR; experiment: [35S]GTPγS functional assay, mDOR; assay type: biochemical
[8] = biological target: T5, Y312W-hKOR; experiment: Tango-arrestin recruitment assay, Y312W-hKOR mutant; assay type: cell-based; design: expressed in transfected cells; conditions: Tango, compared with wild-type KOR
[9] = biological target: T6, mouse mu opioid receptor (mMOR) (Mus musculus, UniProt P42866); experiment: cell-based; assay type: cell-based; conditions: for Emax: read-out: Gi Emax mMOR
T6 construct: expressed in transfected cells; host or cells: HEK-293T, transient (PEI), with BRET sensor cDNAs

[10] = biological target: T2, hDOR; experiment: cAMP inhibition assay, hDOR; assay type: cell-based; design: expressed in transfected cells; conditions: for Emax: read-out: cAMP inhibition Emax % ± SEM
[11] = biological target: T7, hKOR (Homo sapiens, UniProt P41145); experiment: Tango β-arrestin recruitment assay, hKOR; assay type: cell-based
T7 construct: expressed in transfected cells; host or cells: HEK 293T (ATCC CRL-11268), transient

[12] = test system: C57/B6 mice; experiment: Locomotor effect (CLAMS); conditions: 30 or 100 nmol icv
[13] = test system: C57 mice; experiment: Respiratory rate (CLAMS)
[14] = biological target: T8, hMOR (Homo sapiens, UniProt P35372); experiment: cell-based; assay type: cell-based; conditions: for Emax: HEK-293T, read-out: Gi Emax hMOR
T8 construct: expressed in transfected cells; host or cells: HEK 293T (ATCC CRL-11268), transient

[15] = biological target: T7, hKOR; experiment: cAMP inhibition assay (GloSensor, HEK 293T), hKOR; assay type: cell-based; conditions: for Emax: HEK-293T, read-out: Gi Emax hKOR; for Bias factor toward G protein, hKOR: cAMP inhibition vs Tango, against U50,488H as control
[16] = biological target: T9, rat kappa opioid receptor (rKOR) (Rattus norvegicus, UniProt P34975); experiment: BRET assay, arrestin recruitment, rKOR; assay type: cell-based; conditions: BRET
T9 construct: expressed in transfected cells; host or cells: HEK-293T, transient (PEI), with BRET sensor cDNAs

[17] = test system: 330 non-olfactory GPCRs; experiment: PRESTO-Tango GPCRome β-arrestin recruitment screen; assay type: cell-based; conditions: 3 μM
Method: Assessment of off-target activity of MP1207 using PRESTO-Tango GPCR-ome To identify potential off-target activity of MP1207, the National Institutes of Mental Health Psychoactive Drug Screen Program were used. MP1207 was first tested for activity against 330 non-olfactory GPCRs using the PRESTO-Tango GPCRome screening β-arrestin recruitment assay at 3 μM MP1207. The activity at each receptor was measured in quadruplicate.
Screening of compounds was accomplished using previously described methods with several modifications (www.ncbi.nlm.nih.gov/pmc/articles/PMC4424118/). First, HTLA cells were plated in DMEM with 2% dialyzed FBS and 10 U/mL penicillin-streptomycin. Next, the cells were transfected using an in-plate PEI method (www.ncbi.nlm.nih.gov/pmc/articles/PMC4012321/). PRESTO-Tango receptor DNAs were resuspended in OptiMEM and hybridized with PEI prior to dilution and distribution into 384-well plates and subsequent addition to cells. After overnight incubation, drugs diluted in DMEM with 1% dialyzed FBS were added to cells without replacement of the medium. The remaining steps of the PRESTO-Tango protocol were followed as previously described.

[18] = biological target: T9, rat kappa opioid receptor (rKOR); experiment: BRET assay, G-protein activation, rKOR; assay type: cell-based; conditions: for EC50: read-out: Gi EC50 rKOR; for Emax: read-out: Gi Emax rKOR
[19] = biological target: T10, mMOR (Mus musculus, UniProt P42866); experiment: [35S]GTPγS functional assay, mMOR; assay type: biochemical
T10 construct: expressed in transfected cells

[20] = test system: MOR KO, KOR KO, DOR KO mice; experiment: Tail-withdrawal antinociception in opioid receptor knock out mice; assay type: in vivo, mouse; conditions: 30 nmol icv, relative to WT
Method: as §1

[21] = biological target: T8, hMOR; experiment: Tango β-arrestin recruitment assay, hMOR; assay type: cell-based; conditions: Tango
[22] = test system: C57BL/6J mice; experiment: Conditioned place preference and aversion; conditions: MP1207 100 nmol icv, morphine 10 mg/kg IP, U50,488h 30 mg/kg IP
[23] = biological target: T6, mouse mu opioid receptor (mMOR); experiment: cell-based; assay type: cell-based
[24] = biological target: T10, mMOR; experiment: Radioligand competition binding ([125I]IBNtxA), CHO membranes, mMOR; conditions: vs 125IBNtxA (0.1 nM), mean ± SEM
[25] = biological target: T1, mKOR; experiment: Radioligand competition binding ([125I]IBNtxA), CHO membranes, mKOR; conditions: vs 125IBNtxA (0.1 nM), mean ± SEM
[26] = test system: C57BL/6J mice; conditions: icv, same assay (Aldrich et al., 2014); cited from earlier work

SMILES: NCc1cccc(C(=O)NC2CCC3C4Cc5ccc(O)c6c5C3(CCN4CC3CC3)C2O6)c1 [MP1207, 3-(Aminomethyl)-N-((7R,726S)-3-(cyclopropylmethyl)-9-hydroxy-2,3,4,4a,5,6,7,7a-octahydro-1H-4,12-methanobenzofuro[3,2-e]isoquinolin-7-yl)benzamide]
- Emax [1]: 39.3 ± 1.3%
- EC50 ([2]; hDOR, Tango): 64.1 nM
- Emax [2]: 34 ± 3.7%
- selectivity of MOR and KOR over DOR in the binding assays [3]: > 40 fold
- EC50 ([4]; mDOR, BRET): 116 nM
- Emax [4]: 52 ± 2.3%
- EC50 ([5]; cAMP inhibition, read-out: Gi EC50 Y312W-hKOR): 0.16 nM
- Emax [5]: 95 ± 1.8%
- antinociceptive ED50 (95% CI) [6]: 6.1 (4.1-8.9) nmol and 6.1 nmol
- Emax [7]: 10 to 15%
- efficacy at mDOR ([7]; [35S]GTPγS): only weak efficacy
- arrestin recruitment at Y312W-hKOR [8]: further reduction of arrestin recruitment; also recorded: reduced arrestin measurement
- EC50 [9]: 3.61 nM
- Emax [9]: 42 ± 2.6%
- EC50 ([10]; hDOR): 11.4 nM
- Emax [10]: 38 ± 2%
- Emax [11]: 37 ± 2%
- EC50 ([11]; Tango, WT-hKOR): 3.97 nM
- locomotor effect [12]: stimulated locomotor activity; also recorded: increase in the forward locomotory effect
- respiratory rate ([13]; 30 nmol icv): stimulated respiration; also recorded: an increase in the respiratory rate
- respiratory rate ([13]; 100 nmol icv): still stimulated respiration; also recorded: slight right shift of effect
- EC50 [14]: 0.0339 nM
- Emax [14]: 33 ± 1.4%
- Emax [15]: 90 ± 1.7%
- Bias factor toward G protein, hKOR [15]: 8
- arrestin recruitment at rKOR [16]: no recruitment of βarrestin-2; also recorded: no arrestin recruitment was observed
- selectivity for opioid receptors in GPCRome screen ([17]; agonism in arrestin recruitment TANGO assay): reasonable selectivity for opioid receptors over 330 GPCRs; also recorded: selectivity for opioid receptors over non-opioid targets
- increase in signal over basal at opioid receptors ([17]; predominantly at KOR and DOR, much less at MOR): 2 fold over basal
- EC50 ([18]; BRET): 1.13 nM
- Emax [18]: 32 ± 2.3%
- Emax [19]: 41 ± 1%
- antinociception in DOR KO mice [20]: remained intact
- antinociception in KOR KO mice [20]: significantly attenuated
- antinociception in MOR KO mice [20]: significantly attenuated
- arrestin recruitment at hMOR [21]: no recruitment of arrestin was seen; also recorded: no arrestin recruitment was observed
- conditioned place preference or aversion (CPP/CPA) [22]: failed to show either rewarding or aversive behavior; also recorded: did not display GPP seen with morphine or CPA behavior seen with U50, 488h
- arrestin recruitment at mMOR [23]: no recruitment of βarrestin-2; also recorded: no arrestin recruitment was observed

SMILES: N=C(N)NCc1cccc(C(=O)N[C@@H]2CCC3C4Cc5ccc(O)c6c5[C@@]3(CCN4CC3CC3)C2O6)c1 (stereo partly drawn) [MP1208, N-((7R,12bS)-3-(Cyclopropylmethyl)-9-hydroxy-2,3,4,4a,5,6,7,7a-octahydro-1H-4,12-methanobenzofuro[3,2-e]isoquinolin-7-yl)-3-(guanidinomethyl)benzamide]
- Emax [1]: 43 ± 0.8%
- EC50 ([1]; [35S]GTPγS, nM ± SEM): 1.4 nM and 1.36 nM
- Arrestin recruitment pEC50 ± SEM ([2]; hDOR, Tango): 5.5 ± 0.27
- EC50 ([2]; hDOR, Tango): 3620 nM
- Emax [2]: 62 ± 16.7%
- Ki ([3]; vs 125IBNtxA (0.1 nM), CHO membranes, mean ± SEM): 19.3 nM
- EC50 ([4]; mDOR, BRET): 26.6 nM
- G-Protein activation pEC50 ± SEM ([4]; mDOR, BRET): 7.6 ± 0.20
- Emax [4]: 58 ± 3.3%
- Gi pEC50±SEM Y312W-hKOR ([5]; cAMP inhibition): 10.44±0.05
- Emax [5]: 97 ± 1%
- antinociceptive ED50 (95% CI) [6]: 19.8 (12.6-34.0) nmol and 19.8 nmol
- Emax [7]: 10 to 15%
- efficacy at mDOR ([7]; [35S]GTPγS): only weak efficacy
- IC50 ([7]; [35S]GTPγS, antagonism vs 100 nM agonist): 11.4 ± 0.3 nM
- arrestin recruitment at Y312W-hKOR [8]: further reduction of arrestin recruitment; also recorded: reduced arrestin measurement
- Gi pEC50±SEM mMOR [9]: 8.64±0.29
- Emax [9]: 41 ± 3%
- Ki [24]: 0.34 ± 0.01 nM
- cAMP inhibition pEC50 ± SEM ([10]; hDOR): 8.6 ± 0.13
- Emax [10]: 39 ± 1.8%
- Emax [11]: 48 ± 2.4%
- Arrestin pEC50±SEM hKOR ([11]; Tango, WT-hKOR): 7.79±0.14
- EC50 ([11]; Tango, WT-hKOR): 16.4 nM
- Ki [25]: 0.28 nM
- EC50 [14]: 1.86 nM
- Emax [14]: 42 ± 1.3%
- EC50 ([14]; read-out: Gi EC50 hMOR): 0.008 nM
- Emax [15]: 96 ± 1.9%
- Gi pEC50±SEM hKOR ([15]; cAMP inhibition): 9.9±0.07
- Bias factor toward G protein, hKOR [15]: 23
- EC50 ([15]; cAMP inhibition, read-out: Gi EC50 hKOR): 0.14 nM
- arrestin recruitment at rKOR [16]: no recruitment of βarrestin-2; also recorded: no arrestin recruitment was observed
- Gi pEC50±SEM rKOR ([18]; BRET): 8.97±0.29
- EC50 ([18]; BRET): 1.1 nM
- Emax [18]: 40 ± 2.4%
- Emax [19]: 54 ± 0.7%
- EC50 ([19]; [35S]GTPγS, nM ± SEM): 1.1 nM and 1.13 nM
- arrestin recruitment at hMOR [21]: no recruitment of arrestin was seen; also recorded: no arrestin recruitment was observed
- arrestin recruitment at mMOR [23]: no recruitment of βarrestin-2; also recorded: no arrestin recruitment was observed

SMILES: CN1CC[C@]23c4c5ccc(O)c4O[C@H]2[C@@H](O)C=C[C@H]3[C@H]1C5 [Morphine, reference compound]
- respiratory rate ([13]; 10 mg/kg IP or 30 nmol icv, 10 mg/kg): significant reduction in respiratory rates
- respiratory rate ([13]; 10 mg/kg IP or 30 nmol icv, listed as morphine, 10 mg/kg): decreased respiratory rate
- antinociceptive ED50 (95% CI), reported [26]: 2.35 (1.13-5.03) nmol and 2.35 nmol
- conditioned place preference or aversion (CPP/CPA) [22]: place preference

Source: patent US11613547B2 (priority 2019, dated 2023)
